# Measurements: patent US12091378B2, “Therapeutics for central nervous system disorders” (1GLOBE BIOMEDICAL CO., LTD., priority 2017, dated 2024)
# Where a name gives a salt, the structure may show the parent alone.
# Key:
# Microglia = experiment: LPS/IFN-induced microglia activation (Iba1 positive cells); assay type: cell-based, mice; details: 50 μM, LPS 10 ng/mL and IFN 20 ng/ml, 48 hours
# Protocol: Microglia from P7 mice were treated with lipopolysaccharide (LPS, 10 ng/mL) and Interferon-gama (IFN, 20 ng/ml) to induce activation of microglia for 48 hours. To determine the effects on LPS/IFN-induced microglia activation, DMF or various embodiments of compounds of the invention (all at 50 μM) were individually added into separate culture samples 30 minutes after LPS/IFN were added. Cells were later fixed and processed for immunofluorescence (IF) staining with anti-Iba1 (ionized calcium-binding adaptor molecule 1) antibody. The number of Iba1 positive cells and the total number of cells (Hochest H33342 positive cells which includes dead and live cells) were quantified from 12 consecutive areas under fluorescent microscope with 20×objective.
# EAE mouse model = experiment: Clinical score of mouse EAE model (pilot study); assay type: in vivo, C57/BL6 mice; details: 10 mg/ml daily from EAE onset for 20 days
# Protocol: EAE mouse model was induced by inoculation of MOG35-55 protein in adult C57/BL6 mice. Mean clinical score of EAE mice treated with vehicle or Compound 1 (10 mg/ml) for a duration of 42 days after immunization was shown in FIG. 14. The treatments were applied daily from the date of EAE onset for 20 days.
# cerebellar slices [1] = experiment: Remyelination on LPC-induced demyelination in cerebellar slices (MBP immunofluorescence); assay type: cell-based, mice; details: 50 μM, 3 days in culture, LPC 2 mg/mL
# Protocol: (§1) Specifically, cerebellar slices from 8 week-old female mice were treated with lysophosphatidylcholine (LPC, 2 mg/mL) to induce demyelination, and then treated with representative compound of the invention, Compound 1 (50 μM), for 3 days in culture. The slices were processed for immunofluorescence staining with anti-MBP antibody. The images were captured with Nikon eclipse TE2000 microscope using Spot Advanced software (version 4.3) at 4×magnification.
# cerebellar slices [2] = experiment: Remyelination on CPZ-induced demyelination in cerebellar slices (MBP immunofluorescence); assay type: cell-based, mice; details: 50 μM, 3 days in culture
# Protocol: as §1, with “cuprizone (CPZ)” for “lysophosphatidylcholine (LPC, 2 mg/mL)”, “invention” for “invention,”, “μM)” for “μM),”, “4×magnification. The fluorescence intensity of MBP of the cerebellar slice in each image was measured with NIH Image J.” for “4×magnification.”
# CPZ-induced axon damage [3] = experiment: Prophylactic treatment of CPZ-induced axonal damage in vivo (Bielschowsky's silver staining); set-up: species or system mice; details: 10 mg/kg oral gavage for 7 weeks, formulations HPC or GHI F505-1
# Source text: The mice were fed and treated with the same method as Example 9. The Bielschowsky's silver staining was used to visualize axon fiber in mouse brains. Representative images of silver staining of mouse brains sections are shown in FIG. 10A where midline corpus callosum (CC) is delineated by dotted squares in the top panels (scale bar: 200 μm) and then shown at higher magnification in the lower panels (scale bar: 25 μm). While a linear staining pattern of continuous axon fibers is present in normal control CC, axon damage with interruption of axon fibers and demyelination is observed in the CC of CPZ-treated animals. […] Quantitative analysis of silver-stained axons is shown in FIG. 10B where axon damage is scored as follows: a score of 0 means no axon damage and a score of 4 means complete axon damage. Columns “10-A” and “10-B” indicate samples treated with Compound 1 at 10 mg/kg in formulations HPC or GHI F505-1, respectively. *p<0.05, ***p<0.001 compared with control; ## p<0.01 compared with CPZ with vehicle treatment (n=4 mice).
# [4] = tested on: CPZ-induced demyelination; experiment: Therapeutic treatment of CPZ-induced demyelination in vivo (LFB staining); set-up: species or system mice; details: for Demyelination (Score of LFB staining): score 0 complete myelination, 4 complete demyelination, average ± SEM; for recovery from CPZ-induced demyelination and axon damage: therapeutic treatment, Examples 12 and 13
# Protocol: As shown in FIGS. 12A-12C, the compound of the present invention was also tested in vivo to determine its therapeutic effect on promoting remyelination on CPZ-induced demyelination in comparison to DMF. Schematic of the study is depicted in FIG. 12A. Eight-week old mice were fed a diet containing 0.3% (w/w) of CPZ to induce demyelination for 6 weeks. The control mice received regular mouse chow. The CPZ fed mice received oral gavage of formulation (Vehicle), DMF or Compound 1 at the beginning of week 6 for two weeks. At the end of treatment, the brains were collected and, post fixed, processed for analysis. The myelin was stained with LFB stain. Representative images of LFB staining of mouse brain sections are shown in FIG. 12B where midline corpus callosum (CC) is delineated by squares in the top panels (scale bar: 200 μm) and then shown at higher magnification in the lower panels (scale bar: 25 μm). Quantitative analysis of myelination of LFB staining is shown in FIG. 12C where myelination is scored as follows: a score of 0 means complete myelination and a score of 4 means complete demyelination. *p<0.05, *** p<0.001 compared with CPZ with vehicle treatment (n=4-6 mice).
# (§2) According to the above Examples 12 and 13, the therapeutic effects of Compound 1 and DMF on CPZ-induced demyelination and axon damage were summarized below where quantitative analysis of myelination and axon integrity in adult female mice was performed and results shown in Table 1. The scoring of myelination and axon damage was performed as described in Example 12 and Example 13. The treatments are as indicated. The average scores and SEM are shown. Statistic differences were analyzed by one way ANOVA followed by Tukey test. *p<0.05, **p<0.01, […] compared with normal control; #p<0.05, ##p<0.01, ###p<0.001 compared with CPZ plus vehicle, §§p<0.01 compared with CPZ plus DMF at 10 mg/kg (n=4-6 mice).
# CPZ-induced axon damage [5] = experiment: Therapeutic treatment of CPZ-induced axon damage in vivo (silver staining); set-up: species or system mice; details: score 0 no axon damage, 4 complete axon damage, average ± SEM
# Source text: Schematic of this study is depicted in FIG. 13A. Eight-week old female mice were fed a diet containing 0.3% (w/w) of CPZ to induce demyelination for 6 weeks. The control mice received regular mouse chow. The CPZ fed mice received oral gavage of formulation (Vehicle), DMF or Compound 1 at the beginning of week 6 for two weeks. At the end of treatment, the brains were collected, and post fixed, processed for morphological analysis. The axons were stained with Bielschowsky's Silver staining. Representative images of silver staining of mouse brain sections are shown in FIG. 13B where midline corpus callosum (CC) is delineated by white squares in the top panels (scale bar: 200 μm) and then shown at higher magnification in the lower panels (scale bar: 25 μm). Quantitative analysis of axon damage of silver staining is shown in FIG. 13C where axon damage is scored as follows: a score of 0 means no axon damage, and a score of 4 means complete axon damage. **p<0.01, ***p<0.001 compared with CPZ plus vehicle; ##p<0.01 compared with CPZ plus DMF (n=4-6 mice).
# as §2
# MBP, NF, APP, GFAP, Iba1 = experiment: Molecular markers for myelination, axon integrity and glia activation in brain sections (immunofluorescence); assay type: in vivo, mouse; details: CPZ + 10 mg/kg, trend versus CPZ
# Protocol: Effects of Compound 1 on molecule markers relevant to myelination, axon integrity and gliosis were also examined in the brain sections from normal control, CPZ-treated, and CPZ plus Compound 1 treated animals. Molecules in mouse brain sections were stained with respective antibodies by immunofluorescence. The fluorescent intensity of MBP- and NF-labeled fibers were measured with Image J. The number of specific antibody-stained cells in 400×microscopic fields were counted. Although statistic analysis is still in progress, the trends of the effects are clear from the images available so far.
# IGF-2 = IGF-2 in plasma of CPZ MS animal model (ELISA); assay type: in vivo; details: 10 mg/kg oral gavage for 7 weeks, CPZ fed mice
# Source text: IGF2 is a neurotrophic factor which is essential for the development and regeneration of the nervous system, and plays a pivotal role in adult neurogenesis and cognitive function (see Fernadez A M and Torres-Aleman I, 2007, Nat Rev Neurosci 13(4):225-39; Iwamoto T and Ouchi Y, 2014, Rev Neurosci 25(4):559-74). […] FIG. 11A illustrates the schematic of the study. Experimental setup was similar to that in Example 9: eight-week old female mice were fed a diet containing 0.3% (w/w) of CPZ to induce demyelination for 6 weeks. The control mice received regular mouse chow. In the meantime, CPZ fed mice received oral gavage of formulation (Vehicle) or Compound 1 (10 mg/kg) for 7 weeks. At the end of treatment, the plasma was collected and processed for analysis. The levels of IGF-2 in mouse plasma were measured using ELISA. The scatter plot of IGF-2 concentrations found in individual mice is shown in FIG. 11B. **p<0.01 of CPZ plus Compound 1-treated group compared with control (Ctl), or CPZ-treated group (n=4).
# [6] = tested on: CPZ-induced demyelination; experiment: Prophylactic treatment of CPZ-induced demyelination in vivo (LFB staining); set-up: species or system mice; details: 10 mg/kg oral gavage for 7 weeks, formulations HPC or GHI F505-1
# Protocol: As shown in FIGS. 9A-9C, the compound of the present invention (Compound 1) was able to prevent CPZ-induced demyelination in adult female mice. FIG. 9A illustrates the schematic of the study. Eight-week old female mice were fed a diet containing 0.3% (w/w) of CPZ to induce demyelination for 6 weeks. The control mice received regular mouse chow. In the meantime, CPZ fed mice received oral gavage of formulation (Vehicle) or Compound 1 (10 mg/kg) for 7 weeks. At the end of the treatment, mice were perfused, and the brains were collected and processed for analysis. The extent of myelination was examined by staining with Luxol Fast Blue (LFB). Representative images of LFB staining of mouse brain sections are shown in FIG. 9B where midline corpus callosum (CC) is delineated by dotted squares in the top panels (scale bar: 200 μm) and then shown at higher magnification in the lower panels (scale bar: 25 μm). Myelinated axons in the CC from mice fed with normal chow are stained as compacted blue (shown here as gray-colored, same for all following blue-colored pictures). […] Quantitative analysis of myelination of LFB staining is shown in FIG. 9C where myelination is scored as follows: a score of 0 means complete myelination and a score of 4 means complete demyelination. […]
# [7] = tested on: adult cerebellar granule neurons (CGN); experiment: Adult CGN survival (Cell Counting Kit-8); assay type: cell-based, mice; details: 50 μM and 10 μM, 48 hours
# Protocol: CGN cells from 8 week-old female mice (C57BL/6) were maintained in neurobasal medium with B27 supplements. 2×10^5 cells were plated in each well of a PLL-coated 48 well plate with 400 μl of culture medium. Various embodiments of novel compounds of the invention at 50 μM (FIG. 8A) and 10 μM (FIG. 8B), CNTF (10 ng/mL) or DMF (50 μM) were added respectively into the cell culture samples for 48 hours. Cell counting solution (Cell Counting Kit-8, Dojindo, 40 μL) was added to the culture, and cells were incubated at 37° C. with 5% CO2 for 20 hours. The optical densities (OD) of absorbance at 450 nm were measured with SpectraMax M3 plate reader.
# [8] = 0.1 mg/kg oral gavage for two weeks
# [9] = 10 mg/kg oral gavage for two weeks
Structure (SMILES),inhibiting microglia activation (Iba1 positive cells) (Microglia),persistence of effect on clinical score after termination of treatment (EAE mouse model),"average clinical scores versus vehicle (EAE mouse model; 42 days after immunization, n=5)",remyelination on LPC-induced demyelination (MBP fluorescence intensity) (cerebellar slices [1]),remyelination on CPZ-induced demyelination (MBP fluorescence intensity) (cerebellar slices [2]),prevention of CPZ-induced axon damage (silver staining) (CPZ-induced axon damage [3]),"Demyelination (Score of LFB staining) [4, 8]","Demyelination (Score of LFB staining) [4, 9]",recovery from CPZ-induced demyelination and axon damage [4],Axon damage (Score of Silver staining) (CPZ-induced axon damage [5]; [8]),Axon damage (Score of Silver staining) (CPZ-induced axon damage [5]; [9]),"APP (Axonal damage) (MBP, NF, APP, GFAP, Iba1)","GFAP (Astrogliosis) (MBP, NF, APP, GFAP, Iba1)","Iba 1 (Activated microglia) (MBP, NF, APP, GFAP, Iba1)","MBP (Myelin) (MBP, NF, APP, GFAP, Iba1)","NF (Neural fibers) (MBP, NF, APP, GFAP, Iba1)",level of IGF-2 in mouse plasma (IGF-2),prevention of CPZ-induced demyelination (LFB staining) [6],effect on adult CGN survival [7]
COC(=O)/C=C/C(=O)OCc1ccc(COC(=O)NC(=N)NC(=N)N(C)C)cc1 [Compound 1],significantly better efficacy in comparison to DMF,persisted for over two weeks after termination of treatment,significantly lower average clinical scores,strong remyelination effects,promotes remyelination,preserved the continuous staining pattern of axon fibers,2.00 ± 0.26,1.33 ± 0.21,robust recovery,1.33 ± 0.21,0.83 ± 0.31,↓,↓,↓,↑,↑,significantly increase,prevents CPZ-induced demyelination,–
COC(=O)/C=C/C(=O)OCCCCCCOC(=O)NC(=N)NC(=N)N(C)C [Compound 2],significant capability for inhibiting microglia activation,–,–,–,–,–,–,–,–,–,–,–,–,–,–,–,–,–,–
"COC(=O)/C=C/C(=O)OC [DMF, dimethyl fumarate, reference compound]",–,–,–,–,–,–,–,2.25 ± 0.25,not significant,–,2.25 ± 0.25,–,–,–,–,–,–,–,little effect
